From PMC12142043, “Cell-based high-content approach for SARS-CoV-2 neutralization identifies unique monoclonal antibodies and PI3K pathway inhibitors” (Frontiers in Cell and Developmental Biology, 2025)

Test system: SARS-CoV-2 (USA-WA1/2020) in Calu-3 cells
Assay type: cell-based
Conditions: Calu-3, 48 h; for dsRNA signal, AU High: high dose (10 µM); for dsRNA signal, AU Low: low dose (100 nM)

Row | Compound | dsRNA signal, AU High [AU] | dsRNA signal, AU Low [AU]
1 | CCCCCCCCCCCCCC(=O)O[C@@H]1[C@@H](C)[C@@]2(O)[C@@H](C=C(CO)C[C@]3(O)C(=O)C(C)=C[C@@H]23)[C@@H]2C(C)(C)[C@]12OC(C)=O | 6922.4 | 0.0
2 | 2-D08 | 21678.5 | 7689.9
3 | 6H05 | 9210.5 | 25435.6
4 | 10058-F4 | 21785.0 | 24031.2
5 | O=C(O)C(Cc1ccccc1[N+](=O)[O-])=NNc1nc(-c2ccc(Cl)c(Cl)c2)cs1 (mixture of isomers) [4EGI-1] | 27081.3 | 17726.3
6 | COC(=O)C1=C(C)NC(C)=C(C(=O)O[C@@H]2CCCN(Cc3ccccc3)C2)[C@@H]1c1cccc([N+](=O)[O-])c1.Cl (racemic) [Benidipine HCl] | 130.4 | 31078.1
7 | O=C(COc1ccc(Cl)cc1)NC1CCC(NC(=O)COc2ccc(Cl)cc2)CC1 (single isomer, unassigned) [ISRIB (trans-isomer)] | 6980.3 | 60689.2
8 | CC(=O)c1c(O)c(C)c(O)c2c1OC1=CC(=O)C(C(C)=O)C(=O)C12C (single isomer, unassigned; (+)) [(+)-Usniacin] | 3049.6 | 59009.6
9 | O=C1NC(=O)C(=Cc2ccc(-c3ccc(F)cc3)o2)S1 (stereo in doubt) [CAY10505] | 15375.8 | 16784.8
10 | BrC1C(Br)C(Br)C(Br)C(Br)C1Br (stereo not shown) [1,2,3,4,5,6-Hexabromocyclohexane] | 58.9 | 23091.7
11 | CCCCCCCCCCCC(=O)OC[C@H](CO)OC(=O)CCCCCCCCCCC [1,2-Dilauroyl-sn-glycerol] | 32229.3 | 52450.9
12 | OCC1OC(O)CC(O)C1O [2-Deoxy-D-glucose] | 5572.7 | 62378.7
13 | Cn1cnc(N)c2ncnc1-2 [3-Methyladenine] | 32357.3 | 26977.2
14 | Cc1c[nH]c2ccccc12 [3-Methylindole] | 0.0 | 1602.7
15 | O=C(CCl)c1c[nH]c2ccccc12 [3CAI] | 6736.4 | 43810.0
16 | O=C(O)c1ccc(N2C(=O)/C(=C\c3ccc(-c4ccc([N+](=O)[O-])cc4)o3)C=C2c2ccccc2)cc1 [4E1RCat] | 11534.6 | 17206.1
17 | Nc1ncnc2c1c(I)cn2[C@@H]1O[C@H](CO)[C@@H](O)[C@H]1O [5-Iodotubercidin] | 2639.0 | 20167.4
18 | O=c1cc(-c2ccccc2)oc2c(O)c(O)ccc12 [7,8-Dihydroxyflavone] | 9230.6 | 39399.4
19 | CCCCCCCC/C=C\CCCCCCCCCCCC(=O)O [13(Z)-Docosenoic Acid] | 4336.2 | 49926.0
20 | Cc1[nH]nc2ccc(-c3cncc(OC[C@@H](N)Cc4ccccc4)c3)cc12 [A-674563] | 0.0 | 6156.4

Row | Compound | dsRNA signal, AU High [AU] | dsRNA signal, AU Low [AU]
21 | Cc1c(NC(=O)OC[C@@H]2COCCN2)cn2ncnc(Nc3ccc4c(cnn4Cc4cccc(F)c4)c3)c12 [AC480 (BMS-599626)] | 468.1 | 62401.2
22 | COCc1c(-c2ccc(NC(=O)Nc3cc(C(F)(F)F)ccc3F)c(F)c2)c2c(N)ncnn2c1CN1CCOCC1 [ACTB-1003] | 28009.9 | 9584.0
23 | N#C/C(=C/c1ccc(O)c(O)c1)C(=O)NCc1ccccc1 [AG-490] | 8748.3 | 4415.8
24 | CC(C)(C)c1cc(C=C(C#N)C#N)cc(Br)c1O [AG-1024] | 1211.9 | 44737.5
25 | COc1cc2ncnc(Nc3cccc(Cl)c3)c2cc1OC [AG-1478] | 1676.2 | 67129.9
26 | NC(=O)c1ncn([C@@H]2O[C@H](CO)[C@@H](O)[C@H]2O)c1N [AICAR] | 10649.1 | 34470.9
27 | c1ccc(-c2oc3ncnc(NC[C@@H]4CCCO4)c3c2-c2ccccc2)cc1 [AIM-100] | 17272.0 | 4414.3
28 | O=c1[nH]c2ccccc2n1C1CCN(Cc2ccc(-c3nc4cc5[nH]cnc5cc4nc3-c3ccccc3)cc2)CC1 [AKT inhibitor VIII] | 14379.0 | 47838.1
29 | O=C(Nc1ccccc1C(=O)NC1CCCCNC1=O)c1cc2ccccc2s1 (stereo not shown) [ANA 12] | 5083.5 | 20498.0
30 | c1cc(Nc2cc(C3CC3)[nH]n2)nc(Nc2ccc3nc[nH]c3c2)n1 [APY29] | 1195.6 | 15781.0
31 | COc1ccc(CNC(=O)Nc2ncc([N+](=O)[O-])s2)cc1 [AR-A014418] | 79.4 | 22152.5
32 | N#CC(c1ccnc(NCCc2cccnc2)n1)c1nc2ccccc2s1 (stereo not shown) [AS601245] | 18398.2 | 6237.2
33 | O=C1NC(=O)/C(=C\c2ccc3nccnc3c2)S1 [AS-605240] | 11785.5 | 49405.3
34 | COc1cc(N2CCC(N3CCN(C)CC3)CC2)ccc1Nc1ncnc(Nc2ccccc2S(=O)(=O)C(C)C)n1 [ASP3026] | 11916.3 | 27995.4
35 | CCN1CCN(Cc2ccc(NC(=O)Nc3ccc(Oc4cc(NC)ncn4)cc3)cc2C(F)(F)F)CC1 [AST 487] | 7505.2 | 5709.8
36 | Cl.O=C(NC1CCNCC1)c1[nH]ncc1NC(=O)c1c(Cl)cccc1Cl [AT7519 Hydrochloride] | 0.0 | 18031.2
37 | Clc1ccc(C2(c3ccc(-c4cn[nH]c4)cc3)CCNCC2)cc1 [AT7867] | 150.0 | 6554.9
38 | C=CC(=O)Nc1cccc(Nc2nc(Nc3ccc(OCCOC)cc3)ncc2F)c1 [AVL-292] | 20034.7 | 9433.9
39 | N#Cc1ccc2[nH]c(O)c(-c3ccc(CN4CCOCC4)cn3)c2c1 [AZD1080] | 30210.5 | 12322.5
40 | CC(C)n1c(=O)n(C)c2cnc3cc(F)c(-c4ccc(OCCCN5CCCCC5)nc4)cc3c21 [AZD1390] | 7959.8 | 37767.2

Row | Compound | dsRNA signal, AU High [AU] | dsRNA signal, AU Low [AU]
41 | CNC(=O)c1cccc(-c2ccc3c(N4CCOC[C@@H]4C)nc(N4CCOC[C@@H]4C)nc3n2)c1 [AZD2014] | 4130.5 | 12584.4
42 | CN1CCN(S(=O)(=O)c2ccc(-c3cnc(N)c(C(=O)Nc4cccnc4)n3)cc2)CC1 [AZD2858] | 10014.5 | 6684.6
43 | Cc1noc(C)c1-c1ccc(-c2cc(C(N)=O)c(NC(N)=O)s2)c(O[C@H]2CCNC2)c1 [AZD3264] | 223.2 | 47155.4
44 | Cn1cnc2c(F)c(Nc3ccc(Br)cc3Cl)c(C(=O)NOCCO)cc21 [AZD6244 (Selumetinib)] | 7299.3 | 3732.5
45 | C[C@@H]1COCCN1c1cc(C2([S@](C)(=N)=O)CC2)nc(-c2cc[nH]c3nccc2-3)n1 [AZD6738] | 290.6 | 16844.7
46 | COc1ccc(-c2ccc3c(N4CCOC[C@@H]4C)nc(N4CCOC[C@@H]4C)nc3n2)cc1CO [AZD8055] | 0.0 | 39910.8
47 | C[C@@H](Nc1cc(F)cc(F)c1)c1cc(C(=O)N(C)C)cc2c(=O)cc(N3CCOCC3)oc12 [AZD8186] | 4769.3 | 35908.0
48 | Cc1cc(C(=O)NOCCO)c(Nc2ccc(I)cc2F)n(C)c1=O [AZD8330] | 29149.3 | 63631.5
49 | COc1cc(N2CCC(N)CC2)ccc1Nc1ncc(Cl)c(-c2c[nH]c3ccccc23)n1 [AZD-3463] | 9390.1 | 40804.7
50 | Cc1ncc(-c2ccnc(Nc3ccc(S(C)(=O)=O)cc3)n2)n1C(C)C [AZD-5438] | 10643.7 | 32871.5
51 | CN(C)C/C=C/C(=O)Nc1cc2c(Nc3ccc(F)c(Cl)c3)ncnc2cc1O[C@H]1CCOC1 [Afatinib (BIBW2992)] | 1924.8 | 12314.4
52 | CN(C)C/C=C/C(=O)Nc1cc2c(Nc3ccc(F)c(Cl)c3)ncnc2cc1O[C@H]1CCOC1 [Afatinib dimaleate] | 15371.8 | 40279.2
53 | O=C(Nc1cc(Oc2cc(F)c(NC(=O)C3(C(=O)Nc4ccc(F)cc4)CC3)cc2F)ccn1)C1CC1 [Altiratinib] | 7645.1 | 34585.3
54 | CC(C)c1ccc2oc3nc(N)c(C(=O)O)cc3c(=O)c2c1 [Amlexanox] | 17956.6 | 28672.3
55 | S=C(NCc1ccc2c(c1)OCO2)N1CCN(c2ncnc3c2oc2ccccc23)CC1 [Amuvatinib (MP-470, HPK 56)] | 6649.7 | 32179.3
56 | COc1ccc(C[C@H]2NC[C@H](O)[C@H]2OC(C)=O)cc1 [Anisomycin] | 20082.7 | 2629.3
57 | N#CC1(c2ccc(NC(=O)c3cccnc3NCc3ccncc3)cc2)CCCC1 [Apatinib] | 181.1 | 36614.7
58 | O=c1cc(-c2ccc(O)cc2)oc2cc(O)cc(O)c12 [Apigenin] | 1738.8 | 15810.5
59 | C[C@@H]1CC[C@H]2[C@@H](C)C(=O)O[C@@H]3O[C@@]4(C)CC[C@@H]1[C@]32OO4 [Artemisinine] | 2826.9 | 35035.3
